Measurements: PubChem BioAssay AID1259411 (Chemical Carcinogenesis Research Information System (CCRIS), 2018)
Calls of active or inactive are those of the source. How the calls were made is not given here.

Tested on: rodent carcinogenicity bioassays, tumor incidence
Experiment: CCRIS carcinogenicity studies
Details: Dose: 0, Dose: 0
Outline: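 NCI-built, expert-reviewed records of carcinogenicity and related test outcomes (mutagenicity, tumor promotion/inhibition) compiled from published and report sources, historical span 1985-2011, not updated.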

SMILES: CCC1CO1 (configuration not stated)
- carcinogen call (Species: MOUSE, Strain/Sex: B6C3F1/FEMALE, Route: INHALATION, 50, 100 PPM 6 HR/D 5D/WK FOR 102 WK (STUDY DURATION: 103 WK), 50, 100 PPM 6 HR/D 5D/WK FOR 102 WK (STUDY DURATION: 103 WK)): inactive; negative
- carcinogen call (Species: MOUSE, Strain/Sex: B6C3F1/MALE, Route: INHALATION, 50, 100 PPM 6 HR/D 5D/WK FOR 102 WK (STUDY DURATION: 103 WK), 50, 100 PPM 6 HR/D 5D/WK FOR 102 WK (STUDY DURATION: 103 WK)): inactive; negative
- carcinogen call (Species: RAT, Strain/Sex: F344/FEMALE, Route: INHALATION, 200, 400 PPM 6 HR/D 5 D/WK FOR 103 WK (STUDY DURATION: 104 WK), 200, 400 PPM 6 HR/D 5 D/WK FOR 103 WK (STUDY DURATION: 104 WK), Tumor Site: Type of Lesion: NASAL CAVITY: PAPILLARY ADENOMA): equivocal
- carcinogen call (Species: RAT, Strain/Sex: F344/MALE, Route: INHALATION, 200, 400 PPM 6 HR/D 5D/WK FOR 103 WK (STUDY DURATION: 104 WK), 200, 400 PPM 6 HR/D 5D/WK FOR 103 WK (STUDY DURATION: 104 WK), Tumor Site: Type of Lesion: NASAL CAVITY: PAPILLARY ADENOMA, LUNG: ALVEOLAR/BRONCHIOLAR CARCINOMA, LUNG: ALVEOLAR/BRONCHIOLAR ADENOMA OR CARCINOMA, Tumor Site: Type of Lesion: NASAL CAVITY: PAPILLARY ADENOMA, LUNG: ALVEOLAR/BRONCHIOLAR CARCINOMA, LUNG: ALVEOLAR/BRONCHIOLAR ADENOMA OR CARCINOMA): active; positive

SMILES: C[C@]12CC[C@@H]3c4ccc(O)cc4CC[C@H]3[C@@H]1C[C@@H](O)C2=O
- carcinogen call (Species: HAMSTER, Strain/Sex: SYRIAN/MALE, Route: SUBCUTANEOUS IMPLANT, 20 MG IN PELLETS IMPLANTED EVERY 2.5 MO FOR 9 MO (STUDY DURATION: 9 MO), Tumor Site: Type of Lesion: KIDNEY: TUMOR): active; positive

SMILES: CCCSP(=O)(OCC)SCCC
- carcinogen call (Species: Mouse, Strain/Sex: B6C3F1/Female (50/Group), Route: Oral, 0.2, 2, 30 ppm of 94.6% ethoprop in diet for 104 wk, study duration 104 wk, 0.2, 2, 30 ppm of 94.6% ethoprop in diet for 104 wk, study duration 104 wk): inactive; negative
- carcinogen call (Species: Mouse, Strain/Sex: B6C3F1/Male (50/Group), Route: Oral, 0.2, 2, 30 ppm of 94.6% ethoprop in diet for 104 wk, study duration 104 wk, 0.2, 2, 30 ppm of 94.6% ethoprop in diet for 104 wk, study duration 104 wk): inactive; negative
- carcinogen call (Species: Rat, Strain/Sex: Crl:CD(SD)BR VAF/Plus/Female (80-90/Group), Route: Oral, 60, 400 (reduced from 600 during wk 3) ppm of 95.6% ethoprop in diet for 104 wk, study duration 104 wk, 60, 400 (reduced from 600 during wk 3) ppm of 95.6% ethoprop in diet for 104 wk, study duration 104 wk): inactive; negative
- carcinogen call (Species: Rat, Strain/Sex: Crl:CD(SD)BR VAF/Plus/Male (80-90/Group), Route: Oral, 60, 400 (reduced from 600 during wk 3) ppm of 95.6% ethoprop in diet for 104 wk, study duration 104 wk, 60, 400 (reduced from 600 during wk 3) ppm of 95.6% ethoprop in diet for 104 wk, study duration 104 wk): inactive; negative

SMILES: Nc1ccc(N=Nc2ccc(-c3ccc(N=Nc4c(S(=O)(=O)O)cc5c(c4N)C(=O)/C(=N/Nc4ccccc4)C(S(=O)(=O)O)=C5)cc3)cc2)c(N)c1
- carcinogen call (Species: MOUSE, Strain/Sex: ICR/MALE,FEMALE, Route: ORAL, 0.3% IN DRINKING WATER FOR LIFE (STUDY DURATION: 50-60 WK), Tumor Site: Type of Lesion: LIVER: HEPATOCELLULAR CARCINOMA, MAMMARY GLAND: ADENOCARCINOMA OR SQUAMOUS CELL CARCINOMA): active; positive
- carcinogen call (Species: RAT, Strain/Sex: F344/FEMALE, Route: ORAL, 190, 375, 750, 1500, 3000 PPM IN DIET FOR 91 D (STUDY DURATION:93 D), 190, 375, 750, 1500, 3000 PPM IN DIET FOR 91 D (STUDY DURATION:93 D), Tumor Site: Type of Lesion: LIVER: NEOPLASTIC NODULE, FOCI OF CELLULAR ALTERATION OR BASOPHILIC FOCI): active; positive
- carcinogen call (Species: RAT, Strain/Sex: F344/MALE, Route: ORAL, 190, 375, 750, 1500, 3000 PPM IN DIET FOR 91 D (STUDY DURATION: 93 D), 190, 375, 750, 1500, 3000 PPM IN DIET FOR 91 D (STUDY DURATION: 93 D), Tumor Site: Type of Lesion: LIVER: HEPATOCELLULAR CARCINOMA OR NEOPLASTIC NODULE, FOCI OF CELLULAR ALTERATION OR BASOPHILIC FOCI): active; positive

SMILES: C[C@]12CC[C@H](O)CC1=CC[C@@H]1[C@@H]2CC[C@]2(C)C(=O)CC[C@@H]12
- carcinogen call (Species: FISH, Strain/Sex: RAINBOW TROUT/MALE, FEMALE, Route: ORAL, 55, 111, 222, 444, 888 PPM IN DIET 1/D 5 D/WK FOR 42 WK (STUDY DURATION: 42 WK), 55, 111, 222, 444, 888 PPM IN DIET 1/D 5 D/WK FOR 42 WK (STUDY DURATION: 42 WK), Tumor Site: Type of Lesion: LIVER: TUMOR): active; positive
- carcinogen call (Species: FISH, Strain/Sex: RAINBOW TROUT/MALE,FEMALE, Route: ORAL, 55, 111, 222, 444, 888 PPM IN DIET FOR 7 MO (STUDY DURATION: 10 MO), 55, 111, 222, 444, 888 PPM IN DIET FOR 7 MO (STUDY DURATION: 10 MO), Tumor Site: Type of Lesion: LIVER: TUMOR): active; positive
- carcinogen call (Species: RAT, Strain/Sex: F344/MALE, Route: ORAL, 0.45% (WEIGHT/WEIGHT) IN SEMIPURIFIED DIET OIL STRIPPED OF VITAMIN E FOR STUDY DURATION, (STUDY DURATION: 84 WK), 0.45% (WEIGHT/WEIGHT) IN SEMIPURIFIED DIET OIL STRIPPED OF VITAMIN E FOR STUDY DURATION, (STUDY DURATION: 84 WK), Tumor Site: Type of Lesion: LIVER: HEPATOCELLULAR CARCINOMA): active; positive
- carcinogen call (Species: RAT, Strain/Sex: F344/MALE, Route: ORAL, 0.5, 1% IN DIET FOR 78 WK (STUDY DURATION: 78 WK), 0.5, 1% IN DIET FOR 78 WK (STUDY DURATION: 78 WK), Tumor Site: Type of Lesion: LIVER: NEOPLASM): active; positive

SMILES: COc1ccc([C@@H]2CC(=O)c3c(O)cc(O[C@@H]4O[C@H](CO[C@@H]5O[C@@H](C)[C@H](O)[C@@H](O)[C@H]5O)[C@@H](O)[C@H](O)[C@H]4O)cc3O2)cc1OC
- carcinogen call (Species: MOUSE, Strain/Sex: B6C3F1/FEMALE, Route: ORAL, 1.25, 5% IN DIET FOR 96 WK FOLLOWED BY BASAL DIET FOR AN ADDITIONAL 8 WK (STUDY DURATION: 104 WK), 1.25, 5% IN DIET FOR 96 WK FOLLOWED BY BASAL DIET FOR AN ADDITIONAL 8 WK (STUDY DURATION: 104 WK)): inactive; negative
- carcinogen call (Species: MOUSE, Strain/Sex: B6C3F1/MALE, Route: ORAL, 1.25, 5% IN DIET FOR 96 WK FOLLOWED BY BASAL DIET FOR AN ADDITIONAL 8 WK (STUDY DURATION: 104 WK), 1.25, 5% IN DIET FOR 96 WK FOLLOWED BY BASAL DIET FOR AN ADDITIONAL 8 WK (STUDY DURATION: 104 WK)): inactive; negative

SMILES: [O]=[Mo](=[O])=[O]
- carcinogen call (Species: MOUSE, Strain/Sex: B6C3F1/FEMALE, Route: INHALATION, 10, 30, 100 MG/M3 6 HR/D 5 D/WK FOR 105 WK (STUDY DURATION: 105 WK), 10, 30, 100 MG/M3 6 HR/D 5 D/WK FOR 105 WK (STUDY DURATION: 105 WK), Tumor Site: Type of Lesion: LUNG: ALVEOLAR/BRONCHIOLAR ADENOMA, ALVEOLAR/BRONCHIOLAR ADENOMA OR CARCINOMA): active; positive
- carcinogen call (Species: MOUSE, Strain/Sex: B6C3F1/MALE, Route: INHALATION, 10, 30, 100 MG/M3 6 HR/D 5 D/WK FOR 105 WK (STUDY DURATION: 105 WK), 10, 30, 100 MG/M3 6 HR/D 5 D/WK FOR 105 WK (STUDY DURATION: 105 WK), Tumor Site: Type of Lesion: LUNG: ALVEOLAR/BRONCHIOLAR CARCINOMA): active; positive
- carcinogen call (Species: RAT, Strain/Sex: F344/FEMALE, Route: INHALATION, 10, 30, 100 MG/M3 6 HR/D 5 D/WK FOR 106 WK (STUDY DURATION: 106 WK), 10, 30, 100 MG/M3 6 HR/D 5 D/WK FOR 106 WK (STUDY DURATION: 106 WK)): inactive; negative
- carcinogen call (Species: RAT, Strain/Sex: F344/MALE, Route: INHALATION, 10, 30, 100 MG/M3 6 HR/D 5 D/WK FOR 106 WK (STUDY DURATION: 106 WK), 10, 30, 100 MG/M3 6 HR/D 5 D/WK FOR 106 WK (STUDY DURATION: 106 WK), Tumor Site: Type of Lesion: LUNG: ALVEOLAR/BRONCHIOLAR ADENOMA, ALVEOLAR/BRONCHIOLAR CARCINOMA, ALVEOLAR/BRONCHIOLAR ADENOMA OR CARCINOMA): equivocal
